System: Solanum lycopersicum
Experiment: Phytotoxicity against Lycopersicon esculentum L. var. Marmande at 0.05 to 0.1 mg/mL by tomato cutting assay
Type: organism-based
Conditions: in vivo

| Compound | Activity |
| --- | --- |
| C[C@H](O)[C@H]1C=CC(C2CCC(=O)O2)O1 (some centres not stated) [DIPLOBIFURANYLONE B] | Non-toxic |
| C[C@H](O)[C@@H]1C=CC(C2CCC(=O)O2)O1 (some centres not stated) [DIPLOBIFURANYLONE A] | Non-toxic |
